Earlier results in patent publication US20140082761A1, “METHODS TO INCREASE PLANT PRODUCTIVITY” (PLANT SENSORY SYSTEMS, LLC, priority 2011, published 2014).

Tests used:
[1] = target: T1, sulfinoalanine decarboxylase (SAD) (Rattus norvegicus, UniProt Q64611); details: substrate of SAD (decarboxylation); literature values
T1 construct: in vitro assays on SAD isolated from rat; host or cells: enzyme isolated from rat
T1 sequence (Q64611 1-493): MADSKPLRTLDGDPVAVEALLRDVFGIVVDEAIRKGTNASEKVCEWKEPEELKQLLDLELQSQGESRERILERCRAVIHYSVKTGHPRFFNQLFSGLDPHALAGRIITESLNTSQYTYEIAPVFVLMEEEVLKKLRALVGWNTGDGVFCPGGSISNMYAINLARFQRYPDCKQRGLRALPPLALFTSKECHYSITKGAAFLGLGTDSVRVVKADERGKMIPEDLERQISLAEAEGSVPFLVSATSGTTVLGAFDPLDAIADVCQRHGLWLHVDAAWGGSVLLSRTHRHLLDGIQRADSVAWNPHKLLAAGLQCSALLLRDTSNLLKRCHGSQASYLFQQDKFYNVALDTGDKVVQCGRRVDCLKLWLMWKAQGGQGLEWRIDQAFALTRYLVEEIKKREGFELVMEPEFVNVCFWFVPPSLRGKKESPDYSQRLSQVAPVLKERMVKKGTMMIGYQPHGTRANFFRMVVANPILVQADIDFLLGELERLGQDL

Structure (SMILES)	Km [1] [mM]	effect of exogenous application on plant growth and production (plants (crop))
N[C@@H](CC(=O)O)C(=O)O [aspartate]	11	
N[C@@H](CCC(=O)O)C(=O)O [glutamate]	2.9	
NCCS(=O)(=O)O [taurine, 2-aminoethane sulfonic acid]		increase crop harvest, yield, and biomass, increase seedling growth and increase photosynthetic capacity of isolated plant cells and chloroplasts
